Test results published in PubChem BioAssay (NCI).
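Exposure lasted 48 hours, with cells grown in 96-well plates and compounds tested at five concentrations. Here, GI50 denotes the concentration required for 50% inhibition of growth. TGI denotes the concentration required for complete inhibition of growth.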

Columns and labels:
Assay in all cases: inhibition of tumour cell growth, NCI panel, 48 h
M14 melanoma = system: M14 melanoma
IGROV1 ovarian = system: IGROV1 ovarian
NCI-H460 lung = system: NCI-H460 lung
A498 renal = system: A498 renal
UACC-62 melanoma = system: UACC-62 melanoma
SK-MEL-2 melanoma = system: SK-MEL-2 melanoma
SW-620 colon = system: SW-620 colon
HCT-116 colon = system: HCT-116 colon
SK-MEL-5 melanoma = system: SK-MEL-5 melanoma
SN12C renal = system: SN12C renal
SK-MEL-28 melanoma = system: SK-MEL-28 melanoma
SR leukemia = system: SR leukemia
HCC-2998 colon = system: HCC-2998 colon
SF-268 CNS = system: SF-268 CNS
NCI/ADR-RES ovarian = system: NCI/ADR-RES ovarian
RPMI-8226 leukemia = system: RPMI-8226 leukemia
CCRF-CEM leukemia = system: CCRF-CEM leukemia
OVCAR-8 ovarian = system: OVCAR-8 ovarian
NCI-H23 lung = system: NCI-H23 lung
RXF 393 renal = system: RXF 393 renal
SF-539 CNS = system: SF-539 CNS
MDA-MB-435 = system: MDA-MB-435
SNB-19 CNS = system: SNB-19 CNS
786-0 renal = system: 786-0 renal
K-562 leukemia = system: K-562 leukemia
KM12 colon = system: KM12 colon
HS 578T breast = system: HS 578T breast
MDA-MB-231 breast = system: MDA-MB-231 breast
COLO 205 colon = system: COLO 205 colon
PC-3 prostate = system: PC-3 prostate
HOP-92 NSCLC = system: HOP-92 NSCLC
U251 CNS = system: U251 CNS

C[C@H]1[C@H](C)CC[C@]2(C(=O)Nc3ccc4ncccc4c3)CC[C@]3(C)C(=CC[C@@H]4[C@@]5(C)CCCNC(C)(C)[C@@H]5CC[C@]43C)[C@H]12
GI50 (M14 melanoma): 1.94 µM
TGI (M14 melanoma): 3.59 µM
GI50 (IGROV1 ovarian): 1.7 µM
TGI (IGROV1 ovarian): 3.37 µM
GI50 (NCI-H460 lung): 1.94 µM
TGI (NCI-H460 lung): 3.82 µM
GI50 (A498 renal): 1.56 µM
TGI (A498 renal): 2.96 µM
GI50 (UACC-62 melanoma): 1.74 µM
TGI (UACC-62 melanoma): 3.23 µM
GI50 (SK-MEL-2 melanoma): 1.84 µM
TGI (SK-MEL-2 melanoma): 3.43 µM
GI50 (SW-620 colon): 1.8 µM
TGI (SW-620 colon): 3.37 µM
GI50 (HCT-116 colon): 1.6 µM
TGI (HCT-116 colon): 3.11 µM
GI50 (SK-MEL-5 melanoma): 1.85 µM
TGI (SK-MEL-5 melanoma): 3.32 µM

COc1ncc(-c2ccc3ncnc(Nc4cccc(Cl)c4)c3c2)cc1NS(=O)(=O)C1CC1
GI50 (SN12C renal): 1.58 µM
TGI (SN12C renal): > 100 µM
GI50 (SK-MEL-28 melanoma): > 100 µM
TGI (SK-MEL-28 melanoma): > 100 µM
GI50 (SR leukemia): > 100 µM
TGI (SR leukemia): > 100 µM
GI50 (HCC-2998 colon): > 100 µM
TGI (HCC-2998 colon): > 100 µM
GI50 (SF-268 CNS): 1.54 µM
TGI (SF-268 CNS): > 100 µM
GI50 (M14 melanoma): > 100 µM
TGI (M14 melanoma): > 100 µM
GI50 (NCI/ADR-RES ovarian): 1.17 µM
TGI (NCI/ADR-RES ovarian): > 100 µM
GI50 (RPMI-8226 leukemia): > 100 µM
TGI (RPMI-8226 leukemia): > 100 µM
GI50 (CCRF-CEM leukemia): > 100 µM
TGI (CCRF-CEM leukemia): > 100 µM
GI50 (OVCAR-8 ovarian): 2.18 µM
TGI (OVCAR-8 ovarian): > 100 µM
GI50 (NCI-H23 lung): 3.8 µM
TGI (NCI-H23 lung): > 100 µM
GI50 (RXF 393 renal): 0.519 µM
TGI (RXF 393 renal): > 100 µM
GI50 (SF-539 CNS): 2.87 µM
TGI (SF-539 CNS): > 100 µM
GI50 (MDA-MB-435): > 100 µM
TGI (MDA-MB-435): > 100 µM
GI50 (SNB-19 CNS): 3.92 µM
TGI (SNB-19 CNS): > 100 µM
GI50 (786-0 renal): 4.82 µM
TGI (786-0 renal): > 100 µM
GI50 (K-562 leukemia): > 100 µM
TGI (K-562 leukemia): > 100 µM
GI50 (KM12 colon): 38.9 µM
TGI (KM12 colon): > 100 µM
GI50 (HS 578T breast): 0.365 µM
TGI (HS 578T breast): > 100 µM
GI50 (MDA-MB-231 breast): 3.38 µM
TGI (MDA-MB-231 breast): > 100 µM
GI50 (COLO 205 colon): > 100 µM
TGI (COLO 205 colon): > 100 µM
GI50 (SW-620 colon): > 100 µM
TGI (SW-620 colon): > 100 µM
GI50 (PC-3 prostate): > 100 µM
TGI (PC-3 prostate): > 100 µM
GI50 (HOP-92 NSCLC): 0.394 µM
TGI (HOP-92 NSCLC): > 100 µM
GI50 (U251 CNS): 4.75 µM
TGI (U251 CNS): > 100 µM
GI50 (SK-MEL-5 melanoma): > 100 µM
TGI (SK-MEL-5 melanoma): > 100 µM
